The results in this text go back to ChEMBL document CHEMBL5291721, “A preclinical secondary pharmacology resource illuminates target-adverse drug reaction associations of marketed drugs” (Nat Commun, 2023).

In test [1] the target is T1, Adenosine receptor A3 (Homo sapiens, UniProt P0DMS8).
T1 sequence (P0DMS8 whole entry): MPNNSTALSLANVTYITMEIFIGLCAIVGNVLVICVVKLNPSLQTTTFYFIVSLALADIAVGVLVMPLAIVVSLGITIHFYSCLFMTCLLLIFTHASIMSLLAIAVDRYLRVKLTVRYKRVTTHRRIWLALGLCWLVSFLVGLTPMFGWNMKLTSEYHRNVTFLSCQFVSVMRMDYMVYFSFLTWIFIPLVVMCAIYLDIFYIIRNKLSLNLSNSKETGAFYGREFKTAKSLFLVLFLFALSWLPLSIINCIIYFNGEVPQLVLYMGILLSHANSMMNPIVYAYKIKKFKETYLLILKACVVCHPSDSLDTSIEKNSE

Test [2] deals with T2, Alpha-1A adrenergic receptor (Homo sapiens, UniProt P35348).
T2 sequence (P35348 whole entry): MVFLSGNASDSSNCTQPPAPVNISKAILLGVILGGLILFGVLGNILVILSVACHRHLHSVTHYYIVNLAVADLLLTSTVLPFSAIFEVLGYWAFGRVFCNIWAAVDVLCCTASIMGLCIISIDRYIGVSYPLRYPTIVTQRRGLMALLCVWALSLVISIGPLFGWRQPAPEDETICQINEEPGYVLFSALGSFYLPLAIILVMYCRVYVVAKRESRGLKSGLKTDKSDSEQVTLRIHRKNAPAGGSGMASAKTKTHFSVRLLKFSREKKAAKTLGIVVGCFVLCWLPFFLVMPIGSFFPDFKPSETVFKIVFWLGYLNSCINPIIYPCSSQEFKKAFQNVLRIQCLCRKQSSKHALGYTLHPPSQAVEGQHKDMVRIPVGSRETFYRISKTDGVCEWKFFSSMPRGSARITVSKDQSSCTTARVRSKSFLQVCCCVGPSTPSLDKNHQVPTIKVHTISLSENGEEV
It is filed as functional, cell-based.

Test [3] concerns the target T3, Alpha-2A adrenergic receptor (Homo sapiens, UniProt P08913).
T3 sequence (P08913 whole entry): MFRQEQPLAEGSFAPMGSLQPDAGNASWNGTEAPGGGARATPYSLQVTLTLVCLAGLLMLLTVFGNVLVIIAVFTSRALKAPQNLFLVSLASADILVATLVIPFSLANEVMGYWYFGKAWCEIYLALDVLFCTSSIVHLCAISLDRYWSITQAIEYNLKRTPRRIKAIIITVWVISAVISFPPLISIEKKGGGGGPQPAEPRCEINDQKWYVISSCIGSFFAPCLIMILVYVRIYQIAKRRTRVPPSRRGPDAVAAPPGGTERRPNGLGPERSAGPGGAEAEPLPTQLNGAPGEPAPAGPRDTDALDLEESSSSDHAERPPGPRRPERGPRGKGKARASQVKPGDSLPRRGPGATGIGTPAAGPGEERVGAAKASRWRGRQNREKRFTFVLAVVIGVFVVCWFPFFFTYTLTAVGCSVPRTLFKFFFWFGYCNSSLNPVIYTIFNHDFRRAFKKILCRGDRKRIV
The format is functional, cell-based.

In test [4] the target is T3, Alpha-2A adrenergic receptor. It is filed as functional, cell-based. The source holds these as a separate data set.
In test [5] the target is Vasopressin V2 receptor (Homo sapiens, UniProt P30518).
Test [6] has as its target T4, Cholecystokinin receptor type A (Homo sapiens, UniProt P32238).
T4 sequence (P32238 whole entry): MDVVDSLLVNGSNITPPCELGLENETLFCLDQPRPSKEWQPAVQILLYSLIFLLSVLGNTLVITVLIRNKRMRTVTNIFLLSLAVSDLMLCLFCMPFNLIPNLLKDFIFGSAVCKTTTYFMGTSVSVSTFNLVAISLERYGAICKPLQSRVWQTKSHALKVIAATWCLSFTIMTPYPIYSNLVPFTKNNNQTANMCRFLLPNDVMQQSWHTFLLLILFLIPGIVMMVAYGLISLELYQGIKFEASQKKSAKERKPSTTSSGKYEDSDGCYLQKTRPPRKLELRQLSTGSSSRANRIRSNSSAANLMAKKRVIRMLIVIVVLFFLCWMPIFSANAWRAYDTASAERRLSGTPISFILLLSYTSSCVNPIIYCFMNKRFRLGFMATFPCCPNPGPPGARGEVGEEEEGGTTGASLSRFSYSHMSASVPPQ

Test [7] deals with T5, Gastrin/cholecystokinin type B receptor (Homo sapiens, UniProt P32239).
T5 sequence (P32239 whole entry): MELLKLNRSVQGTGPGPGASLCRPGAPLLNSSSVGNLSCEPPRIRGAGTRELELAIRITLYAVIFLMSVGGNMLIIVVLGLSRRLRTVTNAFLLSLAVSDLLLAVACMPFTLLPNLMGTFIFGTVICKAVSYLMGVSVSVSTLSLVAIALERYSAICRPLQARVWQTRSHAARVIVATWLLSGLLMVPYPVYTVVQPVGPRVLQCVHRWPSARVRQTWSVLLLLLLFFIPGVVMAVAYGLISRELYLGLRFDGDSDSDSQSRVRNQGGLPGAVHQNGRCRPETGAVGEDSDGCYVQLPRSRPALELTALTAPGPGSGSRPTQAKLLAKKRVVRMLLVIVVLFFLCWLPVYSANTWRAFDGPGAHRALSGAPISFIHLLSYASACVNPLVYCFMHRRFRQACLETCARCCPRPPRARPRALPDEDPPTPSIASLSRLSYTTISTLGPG

The target in test [8] is Cannabinoid receptor 1 (Homo sapiens, UniProt P21554). The format is functional, cell-based.
Test [9] addresses Growth hormone secretagogue receptor type 1 (Homo sapiens, UniProt Q92847).
Test [10] concerns the target Glutamate receptor ionotropic, NMDA 1 (Rattus norvegicus, UniProt P35439).
Test [11] addresses Mu-type opioid receptor (Homo sapiens, UniProt P35372). The test can be described thus: biochemical. The format is functional.
The target of test [12] is T2, Alpha-1A adrenergic receptor. It is filed as functional, cell-based. This is another data set of the same source.
Note: assay procedure not described here.

Chain of Growth hormone secretagogue receptor type 1 (Q92847 whole entry): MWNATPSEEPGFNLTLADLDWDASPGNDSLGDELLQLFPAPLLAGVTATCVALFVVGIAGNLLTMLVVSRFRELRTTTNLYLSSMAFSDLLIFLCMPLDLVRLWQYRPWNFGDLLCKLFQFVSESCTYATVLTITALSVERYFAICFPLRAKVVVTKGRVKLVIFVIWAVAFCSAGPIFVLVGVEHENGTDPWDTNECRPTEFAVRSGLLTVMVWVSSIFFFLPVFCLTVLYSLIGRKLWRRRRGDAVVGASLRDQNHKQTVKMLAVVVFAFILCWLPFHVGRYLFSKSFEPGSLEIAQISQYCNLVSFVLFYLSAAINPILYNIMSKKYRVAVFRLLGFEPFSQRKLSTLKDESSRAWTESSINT
Chain of Cannabinoid receptor 1 (P21554 whole entry): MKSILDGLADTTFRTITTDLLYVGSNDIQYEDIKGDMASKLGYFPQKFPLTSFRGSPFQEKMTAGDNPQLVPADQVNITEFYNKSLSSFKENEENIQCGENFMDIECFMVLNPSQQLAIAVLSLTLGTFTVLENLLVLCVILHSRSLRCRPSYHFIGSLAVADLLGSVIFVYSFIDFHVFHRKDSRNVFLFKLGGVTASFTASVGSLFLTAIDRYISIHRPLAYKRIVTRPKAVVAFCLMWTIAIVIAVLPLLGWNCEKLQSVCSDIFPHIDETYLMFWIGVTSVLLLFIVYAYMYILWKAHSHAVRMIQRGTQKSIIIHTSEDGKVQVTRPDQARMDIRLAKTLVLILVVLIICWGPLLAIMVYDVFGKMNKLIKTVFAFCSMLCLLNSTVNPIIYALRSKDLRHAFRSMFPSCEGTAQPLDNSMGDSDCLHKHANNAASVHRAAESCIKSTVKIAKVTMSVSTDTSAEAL
Chain of Mu-type opioid receptor (P35372 whole entry): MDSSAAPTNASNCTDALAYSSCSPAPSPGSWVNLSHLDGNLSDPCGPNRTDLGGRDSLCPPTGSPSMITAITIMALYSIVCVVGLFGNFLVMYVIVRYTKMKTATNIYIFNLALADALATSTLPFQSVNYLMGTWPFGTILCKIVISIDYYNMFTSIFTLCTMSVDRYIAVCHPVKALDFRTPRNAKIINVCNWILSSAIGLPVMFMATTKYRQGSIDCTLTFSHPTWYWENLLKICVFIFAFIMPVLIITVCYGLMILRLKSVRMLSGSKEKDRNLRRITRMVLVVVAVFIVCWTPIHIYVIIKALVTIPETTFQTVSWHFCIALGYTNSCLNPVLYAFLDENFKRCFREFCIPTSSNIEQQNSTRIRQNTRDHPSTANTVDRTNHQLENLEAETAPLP
Chain of Vasopressin V2 receptor (P30518 whole entry): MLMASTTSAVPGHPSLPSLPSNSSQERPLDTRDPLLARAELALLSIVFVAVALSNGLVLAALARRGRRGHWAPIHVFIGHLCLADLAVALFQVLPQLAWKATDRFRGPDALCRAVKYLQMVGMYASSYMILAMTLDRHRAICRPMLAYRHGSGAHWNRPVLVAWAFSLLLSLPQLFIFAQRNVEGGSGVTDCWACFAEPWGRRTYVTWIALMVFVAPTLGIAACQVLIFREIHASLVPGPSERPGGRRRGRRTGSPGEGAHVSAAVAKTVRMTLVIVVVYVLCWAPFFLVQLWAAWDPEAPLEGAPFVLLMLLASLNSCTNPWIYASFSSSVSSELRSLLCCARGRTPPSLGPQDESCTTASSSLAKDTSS

As for `C=C[C@@]1(C)CC(=O)[C@]2(O)[C@@]3(C)[C@@H](O)CCC(C)(C)[C@@H]3[C@H](OC(=O)CCN(C)C)[C@H](OC(C)=O)[C@@]2(C)O1`, the AC50 was more than 30 µM in test [1]; 8.3 µM in [2]; more than 30 µM in test [3]; more than 30 µM in [4]; more than 30 µM in test [5]; more than 30 µM in test [6]. The AC50 in [7], in test [8], in [9], in test [10] and in test [11] was more than 30 µM each time.
Consider `CO[C@@]1(NC(=O)Cc2cccs2)C(=O)N2C(C(=O)O)=C(COC(N)=O)CS[C@@H]21` [CEFOXITIN], for which the AC50 in test [1], in test [2], in [3], in test [4], in [5] and in test [6] was more than 30 µM throughout. Moreover, the AC50 in test [7], in test [8], in test [9], in test [10] and in test [11] was more than 30 µM in each case.
With `COCCOC(=O)C1=C(C)NC(C)=C(C(=O)OC/C=C/c2ccccc2)C1c1cccc([N+](=O)[O-])c1` (centres undefined) [CILNIDIPINE], the AC50 in test [1] is 4.8 µM; in test [2], more than 30 µM; in test [3] it was more than 30 µM; in test [5] it was more than 30 µM; in test [6], more than 30 µM; in [7], more than 30 µM. For the same compound, the AC50 in test [8], in [9], in test [10] and in test [11] was more than 30 µM throughout.
Turning to `Nc1nc(F)nc2c1ncn2[C@@H]1O[C@H](COP(=O)(O)O)[C@@H](O)[C@@H]1O` [FLUDARABINE PHOSPHATE], the AC50 in [1], in test [2], in [3], in test [4], in test [5] and in test [6] was more than 30 µM in each case. Further, the AC50 in [7], in [9], in test [10], in [11] and in test [12] was more than 30 µM in each case.
Take `CCn1cc(C(=O)O)c(=O)c2cc(F)c(N3CCN(C)CC3)cc21` [PEFLOXACIN]: the AC50 in test [1], in test [2], in [3], in test [4], in test [5] and in test [6] was more than 30 µM in each case. Besides, the AC50 in test [7], in test [8], in test [9], in [10] and in test [11] was more than 30 µM in each case.
With `Cc1cc2nc3c(=O)[nH]c(=O)nc-3n(C[C@H](O)[C@H](O)[C@H](O)COP(=O)(O)O)c2cc1C` [RIBOFLAVIN 5'-PHOSPHATE], the AC50 in test [1] is more than 30 µM; in test [2], 12 µM; in test [5] it was more than 30 µM; in [6], more than 30 µM; in [7] it was more than 30 µM; in [9], more than 30 µM. In addition, the AC50 was more than 30 µM in [10], more than 30 µM in test [11] and 5.1 µM in test [12].
In the case of `CN1c2ccccc2C(NCCCCCCC(=O)O)c2ccc(Cl)cc2S1(=O)=O` (centres undefined) [TIANEPTINE], the AC50 in test [1], in [2], in test [3], in [4], in test [5] and in test [6] was more than 30 µM throughout. Moreover, the AC50 in test [7] was more than 30 µM; in test [8] it was more than 30 µM; in [9] it was more than 30 µM; in test [10], more than 30 µM; in [11] it was 2.6 µM.
`Cc1cccc(N(C)C(=S)Oc2ccc3ccccc3c2)c1` [TOLNAFTATE]: the AC50 in test [1] was more than 10 µM; in test [2] it was more than 30 µM; in test [3], more than 10 µM; in test [4], more than 10 µM; in [5], more than 10 µM; in [6], more than 10 µM. In addition, the AC50 in [9] is more than 10 µM; in [10] it was more than 10 µM; in [11], more than 30 µM; in test [12], more than 30 µM.

Usually AC50 stands for the concentration at which the activity in the assay is half-maximal. A higher AC50 goes with weaker potency.
